Active and inactive are the calls of the source. No cut-off for these calls is given here.
Experiments:
Type in all cases: functional, organism-based
Spodoptera frugiperda = assay: Insecticidal activity against Spodoptera frugiperda at 100 ug/disk
Staphylococcus aureus = assay: Antibacterial activity against Staphylococcus aureus ATCC 29213 at 100 ug/disk by agar disk diffusion assay
Candida albicans = assay: Antifungal activity against Candida albicans ATCC 14053 at 100 ug/disk by agar disk diffusion assay
Aspergillus flavus = assay: Antifungal activity against Aspergillus flavus NRRL 6541 at 100 ug/disk by agar disk diffusion assay
Bacillus subtilis = assay: Antibacterial activity against Bacillus subtilis ATCC 6051 at 100 ug/disk by agar disk diffusion assay

Row | Compound | Activity (Spodoptera frugiperda) | Activity (Staphylococcus aureus) | Activity (Candida albicans) | Activity (Aspergillus flavus) | Activity (Bacillus subtilis)
1 | CC1(C)C[C@]2(C)CC(=O)O[C@H]3OC(=O)[C@@H]4CC[C@@H]1[C@]342 | Active | – | – | – | –
2 | C[C@@]1(CO)C[C@]2(C)CC=C[C@]23[C@H](C(=O)O)CC[C@@H]13 | inactive | inactive | inactive | inactive | inactive
3 | C[C@@]1(CO)C[C@]2(C)CC(=O)O[C@H]3OC(=O)[C@@H]4CC[C@@H]1[C@]342 | inactive | inactive | inactive | inactive | inactive
